This is an account of results in PMC8405660, “Detection of Borrelia burgdorferi antigens in tissues and plasma during early infection in a mouse model” (Scientific Reports, 2021).

This assay has as its target C10-11 mAb. The experiment in a line: Competitive ELISA with AChE-labeled C10 peptide on C10-11 mAb. Set-up: species or system mouse. To be noted: read-out: Apparent dissociation constant (Kapp) of C10-11 mAb; concentration of competitor inducing 50% inhibition of binding of AChE-labeled C10 peptide (0.5 EU/mL); mAb 1 ng/mL, overnight at 4 °C; NB means no binding. The procedure:
The apparent affinity of anti-C10 peptide mAbs for different variants of C10 peptides and recombinant OspC was measured by competitive ELISA, using goat anti-mouse antibodies (Jackson ImmunoResearch, Cambridgeshire, United Kingdom) coated on the wells of a microtiter plate. A mix of anti-C10 peptide mAb (1 ng/mL), AChE-labeled C10 peptide (0.5 EU/mL) and different concentrations of competitor peptide or recombinant OspC were reacted overnight in the wells at 4 °C.
On the technique in general: In an ELISA, binding on a coated surface is turned into a signal by an enzyme label.

Where no end group is shown, it is not given here.

In the case of PVVAEAPKKP [compound 2], the Kd came to 146 nM.

Take PIVAESPKKP [compound 10]: the Kd stood at 100 nM.

Regarding PVMAESPKKP [compound 9], the Kd amounted to 125 nM.

As to PVVAESPKKT [compound 3], the Kd worked out at 60 nM.

For “PVVAESPKKP [compound 1, reference compound]”, the Kd worked out at 33 nM.

On to PVVAETPKKP [compound 5], for which the Kd is 179 nM.

Regarding PVVAESQKKP [compound 7], the Kd turned out to be 170 nM.
